From patent US8063108B2, “Method for modulating microbial quorum sensing” (priority 2004, dated 2011)

Key:
[1] = biological target: T1, LasR transcriptional activator (Pseudomonas aeruginosa, UniProt P25084); assay: P. putida F117 pKRC12 lasB-GFP reporter assay (secondary screens); format: cell-based; settings: compounds 10 μM, relative fluorescence (fluorescence divided by absorbance at 600 nm) as percent of AHL induced control; for % Activity of AHL Standard, 3 oxo C10HSL: 3oxoC10HSL 100 nM; for % Activity of AHL Standard, 3 oxo C12HSL: 3oxoC12HSL 50 nM
T1 construct: expressed in transfected cells; host or cells: Pseudomonas putida F117 carrying plasmid pKRC12 (lasR, PlasB-gfp)
T1 sequence (P25084 whole entry): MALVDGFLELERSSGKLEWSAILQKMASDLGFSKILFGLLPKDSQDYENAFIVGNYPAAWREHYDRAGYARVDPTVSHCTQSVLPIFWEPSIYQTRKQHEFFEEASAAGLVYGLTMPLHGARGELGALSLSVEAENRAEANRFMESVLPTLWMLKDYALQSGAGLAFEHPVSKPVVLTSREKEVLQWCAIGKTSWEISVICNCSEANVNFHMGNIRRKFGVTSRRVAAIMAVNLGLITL
Procedure: Additional screens were performed similar to screen described in the initial screen, except assays were performed in 96-well microtiter plates at a total volume of 100 μl. The reporter strain P. putida F117 pKRC12 was grown overnight at 28° C. in LB media, diluted with LB media to achieve an optical density of 0.05 at 600 nm (OD600), and 96 μl of cells were aliquoted to 96-well plates. Compounds were added at a final concentration of 100 nm or as otherwise indicated in each experiment and the bacterial cells were incubated with the compounds for approximately 30 minutes prior to the addition of 3oxoC10HSL or 3oxoC12HSL at a final concentration of 100 nM and 50 nM respectively or as indicated for each experiment. Fluorescence was measured at regular intervals after 3 hours using the Wallac Victor2 plate reader with an excitation wavelength of 485 nm and emission detection at 515 nm. Representative results are presented in FIGS. 6A and B and present the percentage of GFP expression activity as a function of expression of the AHL (3oxoC10 HSL) control. The numbers on the X axis refer to the Chembridge library reference number. Effects on growth of the antagonists were determined by measuring the optical density at 600 nm of growing bacterial cultures P. putida F 117 pKRC 12. […] (Reference for P. putida F117 pKRC12: Steidle, A., K. Sigl, R. Schuhegger, A. Ihring, M. Schmid, S. Gantner, M. Stoffels, K. Riedel, M. Givskov, A. Hartmann, C. Langebartels, and L. Eberl. 2001. Visualization of N-acylhomoserine lactone-mediated cell-cell communication between bacteria colonizing the tomato rhizosphere. Appl Environ Microbiol 67:5761-70). […]
This example presents representative results of experiments designed to test the activity of putative antagonists when challenged with different concentrations of synthetic AHLs, particularly 3oxoC12HSL. Assays were conducted with P. putida F117 pKRC12 reporter strain as described in the methods for secondary screens.
Following the initial screens to identify strong antagonists of the LasR transcriptional activator, further investigation of additional compounds in the Chembridge library was carried out. In particular, the experiments described in Example 1 identified three compounds that shared a thiocarbamate structure, as also shown in FIG. 16. To further investigate structure-activity relationships, the inventors examined the antagonist activity of 19 additional compounds with related thiocarbamate structures, using the procedures described in Example 1. The results are presented in Table 4, expressed as the percent activity of the AHL induced control. The % activity represents the relative fluorescence, which is the fluorescence observed in each assay divided by bacterial cell density as measured by absorbance at 600 nm. Compounds were assayed at a concentration of 10 μM. Assays were conducted with P. putida F117 pKRC12 reporter strain as described in the methods for secondary screens. The 3oxoC10HSL and 3oxoC12HSL were assayed at concentrations of 100 nM and 50 nM, respectively.

[2] = biological target: T1, LasR transcriptional activator; assay: Screen signal of thiocarbamate compounds (Table 1), GFP AHL sensor strain with LasR; format: cell-based
From the text: A screening system with green fluorescent protein as a reporter gene was adapted in a non-pathogenic species, Pseudomonas putida, closely related to Pseudomonas aeruginosa. A key element involved in the regulation of Pseudomonas aeruginosa, LasR, was engineered into the GFP construct (see FIG. 2), such that expression of GFP is linked to quorum sensing. Pseudomonas putida was then subjected to induction (e.g. by 3oxoC12HsL or 3oxoC10HsL) and/or inhibition by candidate chemical compounds from a commercially available combinatorial library. About 16,000 candidate compounds were individually screened.
Many Gram negative bacteria use quorum sensing, an intercellular signaling network that relies on N-acyl homoserine lactone signal molecules (AHL), to regulate and coordinate behaviors and interactions. Expression of quorum sensing-regulated genes is contingent on a LuxR-type transcriptional regulator and the accumulation of a threshold concentration of the cognate AHL. The experiments in this example relate to screening assays carried out to identify compounds that interfere with virulence gene expression under the control of the LasR transcriptional activator, a member of the LuxR family of transcriptional regulators. The inventors screened a library of approximately 16,000 synthetic compounds for induction and inhibition of quorum sensing in a Pseudomonas putida AHL sensor strain, engineered with the LasR transcriptional activator, which controls virulence gene expression in Pseudomonas aeruginosa. LasR mediated gene expression was monitored by measuring green fluorescent protein (GFP) expression from a transcriptional fusion between GFP and the promoter from lasB, which is under the control of LasR. lasB is a virulence gene that encodes an elastase involved in pathogenesis.
The initial screen utilized 3oxoC10HSL [N-(3-oxo-decanoyl)-L-homoserine lactone] as the inducer of LasR mediated signaling to identify compounds that compete with 3oxoC10HSL for half-maximal activation of GFP expression by the AHL reporter. This strategy enables identification of agonists and antagonists of LasR by pursuing compounds that either reduce or augment the activity of the AHL. The inventors further analyzed the antagonists in competition with 3oxoC12HSL [N-(3-oxo-dodecanoyl)-L-homoserine lactone]. The activities of the agonists were further characterized in the absence of AHL.
To determine the effects of compounds on AHL-mediated quorum sensing, the reporter strain P. putida F117 pKRC12 was grown overnight at 28° C. in LB media, diluted with LB media to achieve an optical density of 0.05 at 600 nm (OD600), and 28 μl aliquots of cells were added to 384-well plates. 16,000 compounds were screened from a subset of the Chembridge DIVERSet, each at a final concentration of 100 nM. Bacterial cells at a final volume of 30 μl were incubated with the compounds for approximately 30 minutes prior to the addition of 3oxoC10HSL, at a final concentration of 100 nM. All of the compounds were dissolved in DMSO. DMSO was included in all controls. A Biomek FX liquid handler was used to dispense the reagents and bacteria into the 384-well plates. The initial screen was performed at room temperature. Fluorescence was measured at regular intervals after 3 hours using the EnVision plate reader (Perkin Elmer, inc.) with an excitation wavelength of 485 nm and emission detection at 510 nm. Compounds that reduced or increased the expression of GFP by a factor of greater than or equal three standard deviations from the mean values for controls containing 3oxoC10HSL were chosen for further analysis. Compounds that increased the expression of GFP by three standard deviations were designated as putative agonists. Compounds that decreased the expression of GFP by three standard deviations were designated as putative antagonists.

Row | Compound | % Activity of AHL Standard, 3 oxo C10HSL [1] [%] | % Activity of AHL Standard, 3 oxo C12HSL [1] [%] | Signal 671/672 [2] | Signal 673/674 [2] | Signal 674/875 [2]
1 | COC(=O)c1ccccc1NC(=O)CSC(N)=O [Compound 1] | 35.86 | 33.64 |  |  | 
2 | CCOC(=O)c1ccccc1NC(=O)CSC(N)=O [Compound 2] | 35.50 | 40.09 |  |  | 
3 | Cc1ccc(NC(=O)CSC(N)=O)cc1Cl [Compound 3] | 32.27 | 41.63 |  |  | 
4 | Cc1cccc(NC(=O)CSC(N)=O)c1C [Compound 4] | 37.50 | 43.00 |  |  | 
5 | Cc1ccc(Cl)cc1NC(=O)CSC(N)=O [Compound 5] | 56.73 | 47.85 |  |  | 
6 | NC(=O)SCC(=O)Nc1cccc(O)c1 [Compound 6] | 45.08 | 49.68 |  |  | 
7 | COc1ccc(NC(=O)CSC(N)=O)cc1 [Compound 7] | 36.45 | 49.85 |  |  | 
8 | NC(=O)SCC(=O)Nc1ccccc1Cl [Compound 8] | 32.72 | 51.98 |  |  | 
9 | COc1cccc(NC(=O)CSC(N)=O)c1 [Compound 9] | 35.50 | 53.30 |  |  | 
10 | Cc1cccc(NC(=O)CSC(N)=O)c1 [Compound 10] | 49.10 | 55.40 |  |  | 
11 | NC(=O)SCC(=O)Nc1ccccc1Br [Compound 11] | 36.60 | 56.70 |  |  | 
12 | CC(=O)c1ccc(NC(=O)CSC(N)=O)cc1 [Compound 12] | 59.20 | 64.90 |  |  | 
13 | NC(=O)SCC(=O)Nc1cccc(F)c1 [Compound 13] | 33.60 | 67.60 |  |  | 
14 | COc1ccccc1NC(=O)CSC(N)=O [Compound 14] | 46.80 | 68.60 |  |  | 
15 | COc1ccccc1NC(=O)CSC(N)=O [Compound 5947535] |  |  | 99128 | 169923 | 572429
16 | NC(=O)SCC(=O)Nc1ccccc1O [Compound 5947920] |  |  | 31966 | 33599 | 35234
17 | NC(=O)SCC(=O)Nc1ccc(Br)cc1 [Compound 5948339] |  |  | 99889 | 122318 | 382242
18 | Cc1ccc(Cl)cc1NC(=O)CSC(N)=O [Compound 5948544] |  |  | 120140 | 98180 | 418594

Row | Compound | % Activity of AHL Standard, 3 oxo C10HSL [1] [%] | % Activity of AHL Standard, 3 oxo C12HSL [1] [%] | Signal 671/672 [2] | Signal 673/674 [2] | Signal 674/875 [2]
19 | COc1ccc(NC(=O)CSC(N)=O)cc1 [Compound 5948690] |  |  | 580722 | 341731 | 1742777
20 | NC(=O)SCC(=O)Nc1ccc(Cl)c(Cl)c1 [Compound 5949527] |  |  | 314238 | 171491 | 686157
21 | NC(=O)SCC(=O)Nc1ccccc1Br [Compound 5949674] |  |  | 184012 | 227644 | 1811011
22 | NC(=O)SCC(=O)Nc1cccc(F)c1 [Compound 5949713] |  |  | 100580 | 97648 | 265386
23 | COc1ccc(NC(=O)CSC(N)=O)c(OC)c1 [Compound 5950824] |  |  | 358647 | 332745 | 1769017
24 | COC(=O)c1ccccc1NC(=O)CSC(N)=O [Compound 5951673] |  |  | 135505 | 176618 | 1041625
25 | COC(=O)c1ccc(NC(=O)CSC(N)=O)cc1 [Compound 5952057] |  |  | 161090 | 186369 | 1124336
26 | CCOC(=O)c1ccccc1NC(=O)CSC(N)=O [Compound 5952120] |  |  | 29681 | 31840 | 32358
27 | CC(=O)c1ccc(NC(=O)CSC(N)=O)cc1 [Compound 5952389] |  |  | 464145 | 594209 | 1805803
28 | Cc1ccc(NC(=O)CSC(N)=O)cc1Cl [Compound 5952472] |  |  | 176752 | 223255 | 652341
29 | NC(=O)SCC(=O)Nc1cccc(Cl)c1 [Compound 5953997] |  |  | 71274 | 87420 | 218815
30 | NC(=O)SCC(=O)Nc1ccc(I)cc1 [Compound 5955203] |  |  | 375590 | 386242 | 1805793
31 | Cc1ccc(NC(=O)CSC(N)=O)c(C)c1 [Compound 5955325] |  |  | 120271 | 134098 | 694077
32 | Cc1cccc(NC(=O)CSC(N)=O)c1 [Compound 5955821] |  |  | 266776 | 285870 | 1575457
33 | NC(=O)SCC(=O)Nc1ccccc1Cl [Compound 5956488] |  |  | 120221 | 145117 | 867440
34 | Cc1cccc(NC(=O)CSC(N)=O)c1C [Compound 5956611] |  |  | 116987 | 131695 | 703195
35 | COc1cccc(NC(=O)CSC(N)=O)c1 [Compound 5956868] |  |  | 246680 | 243693 | 1277307
